These results are taken from PMC8297771 (PLoS Pathogens, 2021).

The test system of series [1] is HIV-1_89.6 passage 14 viral population (Y99H and A128T). The experiment in a line: Susceptibility of STP0404-selected viral population, passage 14, in CEMx174 cells. It is filed as cell-based. The conditions noted are these: passage 14 viral population (Y99H and A128T) vs wild type HIV-1_89.6. As to the method: CEM x174 cells infected with HIV primary isolate 89.6 were cultured in the presence of STP0404 at the concentration of IC90 determined earlier. At each passage, cells from original culture in the presence of inhibitor (0.75x10^6 cells) were mixed with equal amount of no-drug control cells to propagate, and viral replication was monitored by the production of p24 antigen in the supernatant. […] The population of drug-induced mutations at each passage mentioned above was determined by sequencing of at least 10 resulting transformants.
CEM x174 cells were infected with cell-free viral supernatant collected during virus resistance assays above. […] The viral stocks were normalized by the amount of p24 capsid antigen, determined to infect CEMx174 cells at approximately 10% of populations (10,000 pg / 10^6 cells). […] Cell-free supernatants were measured for p24 antigen production 5 days post-infection. p89.6 plasmid was applied for Quickchange kit (Invitrogen) to create Y99H single, A128T single, Y99H/A128T double mutants as well as two natural variants (A124N and T125A), and these 89.6 variant viruses were generated by transfecting 293T cells and culturing the produced viruses in CEMx174 cells. The IC50 of STP0404 against respective viruses were analyzed using GraphPad Prism (Version 9) and presented as means ± S.D. of triplicates. […]

Series [2] deals with CYP3A and PXR. The experiment in a line: PXR induction in DPX2 cells. Format: in vitro ADME. The protocol: STP0404 to activate PXR, and thereby to induce CYP3A4 expression in DPX2 cell lines following in vitro administration. […] After 48 hrs incubation, the cell viability was assessed fluorimetrically via CellTiter-FluorTM. CYP3A-mediated metabolism and PXR activation are measured using luminescence with Luciferin-IPA and ONE-GloTM, respectively. The light intensity is directly proportional to the extent of PXR activation and accompanying gene transcription in the DPX2 cells (Wuxi AppTec, China).

Series [3] concerns the target T1, full-length IN (Human immunodeficiency virus type 1 group M subtype B, UniProt P12497).
T1 construct: between two full-length IN protein populations differentially labeled
The experiment in a line: HTRF-based IN multimerization assay. It is filed as biochemical, HIV-1. As to the method:
To test the ability of STP0404 to induce higher-order multimerization of IN we employed homogeneous time-resolved fluorescence (HTRF)-based assay. Briefly, His-tagged and FLAG-tagged INs (each at 10 nM final concentration) were mixed in buffer containing 25 mM Tris, pH 7.4, 150 mM NaCl, 2 mM MgCl2, 0.1% Nonidet P-40 and 1 mg/ml BSA. This mixture was incubated with various concentrations of the test compounds for 3 hrs at room temperature. The detection is based on anti-His6-XL665 and anti-FLAG-EuCryptate antibodies (Cisbio, Inc., Bedford, MA) which were added to the reaction and incubated at room temperature for 3 hrs. The HTRF signal was recorded by PerkinElmer EnSpire multimode plate reader and OriginLab software was used to calculate the EC50 values.
In general terms: In TR-FRET formats the signal depends on donor and acceptor labels being close together.

Series [4] can be described thus: Plasma protein binding (equilibrium dialysis). Format: in vitro ADME. The conditions noted are these: Sprague-Dawley (rat), beagle (dog), cynomolgus monkey, pH 7.4, monkey and human plasma, read-out: In vitro protein binding. As to the method: The current study utilized the 96-well equilibrium dialysis device purchased from HTDialysis to dialyze the test compound and the control compound at 2 μM in plasma at 37±1°C for 4 hrs. Plasma prepared from Sprague-Dawley rats, beagle dog, cynomolgus monkey and humans were previously frozen at below -60°C. The dialysis membrane strips were soaked in ultra-pure water at room temperature for approximately 1 hr. After that, each membrane strip that contains 2 membranes was separated and soaked in ethanol:water (20,80 v,v) for approximately 20 mins, after which it was ready for use or was stored in the solution at 2–8°C for up to a month. Prior to the experiment, the membrane was rinsed and soaked for 20 mins in ultra-pure water. On the day of experiment, the plasma from Sprague-Dawley rats, beagle dogs, cynomolgus monkey and humans was thawed under running cold tap water and centrifuged at 3220×g for 5 mins to remove any clots and the pH value of the resulting plasma will be checked. if required, adjusted to 7.4 ± 0.1. All samples were further processed by protein precipitation for LC/MS/MS analysis (Wuxi AppTec, China).
On the technique in general: In equilibrium dialysis free small molecules cross a membrane that holds back macromolecules.

Series [5] can be described thus: Microsomal stability determination. It is filed as in vitro ADME, animal and human. The conditions noted are these: human, liver microsomes; all tested species; read-out: microsomal stability T1/2. The protocol:
A liver microsome (LM) stability assay was […] of incubation at 0, 10, 20, 30 and 60 min with a […] STP0404 initial concentration. All plates were shaken and centrifuged at 3200 x g for 20 mins. Then 100 μL of supernatant was taken from each well and diluted with 300 μL pure water before analyzed by LC/MS/MS. Animal and human liver microsomes were purchased from Wuxi AppTec, Xenotech or Corning and stored in a freezer (lower than -60°C) before use (Wuxi AppTec, China).
Background: Liver microsomes are vesicles of endoplasmic reticulum, rich in cytochrome P450 enzymes.

Series [6] deals with human PBMCs. The experiment in a line: Tissue culture cytotoxicity measurement in human PBMCs. It is filed as cell-based. The source says:
Multiple chemical scaffolds such as quinoline (BI224436, Fig 1A), benzothiazole (GS-9822, Fig 1B) and pyridine (KF116, Fig 1C) were previously explored for the discovery of ALLINIs. Here, we employed the pyrrolopyridine-based scaffold to synthesize an ALLINI candidate compound, STP0404 (Fig 1D). STP0404 harbors the tert-butoxy moiety that is common to other ALLINIs (Fig 1). First, we measured its in vitro anti-HIV-1 efficacy and cytotoxicity using various HIV-1 strains in multiple cell types, with cytotoxicity initially tested up to 10 μM (Table 1). […] The calculated in vitro minimum therapeutic index (TI) of STP0404 under these conditions was accordingly >25,000. For comparison, we employed two FDA-approved HIV-1 inhibitors, AZT (RT inhibitor) and Raltegravir (Ral, INSTI), alongside 5 different Ral-resistant clinical isolates (Table 1).

Structures are written as SMILES. Some results are limits rather than exact numbers.

Broadly, the EC50 is the midpoint of the concentration-response curve. Consider `Cc1nc2c(c(C)c(C)n2Cc2cnn(C)c2)c(-c2ccc(Cl)cc2)c1[C@H](OC(C)(C)C)C(=O)O` [STP0404], for which the IC50 fold increase in series [1] was 61.4 fold. Also, in series [2], the “EC50 to activate drug metabolizing factors (in words)” value is given as “comparatively high concentrations”. In series [3], this compound had an EC50 of 147 ± 20 nM. For the same compound, the fraction unbound at 4 h, 2 μM in series [4] was 0.003 to 0.061. The half-life at 1 μL in series [5] was over 2.22 h. Besides, the TC50 in series [6] (human) is >10,000 nM; in series [6] (human PBMCs, NL4-3, tested up to 10 μM) it was >10,000 nM; in series [6] (human PBMCs, no observable cytotoxicity at 10 μM), over 10 µM.
